From patent US9902702B2, “Spirocycloheptanes as inhibitors of rock” (BRISTOL-MYERS SQUIBB COMPANY, priority 2014, dated 2018)
Structures can show the parent of a compound that is named as a salt.

molecular target: ROCK2 (Homo sapiens, UniProt O75116); test: ROCK assay: phosphorylation of FITC peptide substrate, LABCHIP 3000 mobility shift; assay type: biochemical; conditions: 5 μM ATP, 1.5 μM peptide substrate; read-out: ROCK2 Activity (ROCK IC50 range)
Procedure, shortened: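 IC50 values come from curve-fitting percent kinase inhibition across a compound dilution series. The reaction is started with Rho kinase variant in HEPES pH 7.5 buffer with MgCl2, Brij-35 and DTT, with 5 μM ATP, 1.5 μM FITC-labelled peptide and under 2% DMSO. After EDTA quench, product and substrate are separated by microfluidic mobility shift.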

ROCK2, sequence (O75116 whole entry, species assumed): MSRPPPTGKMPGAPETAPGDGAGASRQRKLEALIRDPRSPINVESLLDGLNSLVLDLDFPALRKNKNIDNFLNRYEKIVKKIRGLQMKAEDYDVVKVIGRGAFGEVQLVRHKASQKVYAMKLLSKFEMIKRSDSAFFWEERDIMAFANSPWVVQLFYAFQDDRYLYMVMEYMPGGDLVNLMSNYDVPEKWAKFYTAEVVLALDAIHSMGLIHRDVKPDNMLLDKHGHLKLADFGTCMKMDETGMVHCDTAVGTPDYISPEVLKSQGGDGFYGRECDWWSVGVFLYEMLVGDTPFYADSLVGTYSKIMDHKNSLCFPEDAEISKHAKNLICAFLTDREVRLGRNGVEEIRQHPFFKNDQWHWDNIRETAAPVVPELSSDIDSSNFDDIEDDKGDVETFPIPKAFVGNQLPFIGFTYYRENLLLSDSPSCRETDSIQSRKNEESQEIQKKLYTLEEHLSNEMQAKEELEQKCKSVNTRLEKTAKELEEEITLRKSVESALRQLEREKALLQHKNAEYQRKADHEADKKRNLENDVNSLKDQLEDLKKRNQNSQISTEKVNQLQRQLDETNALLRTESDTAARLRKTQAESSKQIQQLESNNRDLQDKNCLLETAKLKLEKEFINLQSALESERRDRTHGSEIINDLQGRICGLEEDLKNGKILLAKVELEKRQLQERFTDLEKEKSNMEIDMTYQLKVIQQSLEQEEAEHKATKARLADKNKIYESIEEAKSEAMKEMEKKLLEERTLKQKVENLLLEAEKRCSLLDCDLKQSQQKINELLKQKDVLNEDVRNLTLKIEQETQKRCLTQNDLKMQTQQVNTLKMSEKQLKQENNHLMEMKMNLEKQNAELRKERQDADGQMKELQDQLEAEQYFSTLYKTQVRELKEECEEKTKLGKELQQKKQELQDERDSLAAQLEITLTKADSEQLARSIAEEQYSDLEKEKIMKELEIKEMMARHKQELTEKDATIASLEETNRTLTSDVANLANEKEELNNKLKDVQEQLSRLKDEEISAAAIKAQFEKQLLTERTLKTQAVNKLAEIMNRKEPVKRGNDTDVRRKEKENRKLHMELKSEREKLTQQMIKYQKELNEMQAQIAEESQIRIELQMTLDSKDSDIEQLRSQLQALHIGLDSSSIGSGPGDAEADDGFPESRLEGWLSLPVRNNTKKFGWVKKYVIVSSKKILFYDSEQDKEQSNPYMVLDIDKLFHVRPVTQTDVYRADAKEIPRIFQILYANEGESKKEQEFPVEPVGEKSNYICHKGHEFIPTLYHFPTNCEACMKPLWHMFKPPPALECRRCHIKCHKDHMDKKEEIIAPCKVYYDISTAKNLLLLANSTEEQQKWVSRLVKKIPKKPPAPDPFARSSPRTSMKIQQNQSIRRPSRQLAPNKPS

Compound | IC50 [nM]
O=C(OC1CC2(C1)CC(c1n[nH]c(=O)c3ccccc13)C2)N1Cc2ccccc2C1 (stereo not shown) [Example 464, 6-(4-oxo-3,4-dihydrophthalazin-1-yl)spiro[3.3]heptan-2-yl isoindoline-2-carboxylate] | 100 to 2100
Cn1cc(-c2cnc(C(=O)N[C@H]3CC4(C3)C[C@H](c3n[nH]c(=O)c5ccccc53)C4)c(F)c2)cn1 (stereo partly drawn) [Example 463, 3-fluoro-5-(1-methyl-1H-pyrazol-4-yl)-N-((aR)-6-(4-oxo-3,4-dihydrophthalazin-1-yl)spiro[3.3]heptan-2-yl)picolinamide] | 15.1 to 100
CC(C)(O)Cn1nc(C(=O)NC2CC3(C2)CC(F)(c2n[nH]c(=O)c4ccccc24)C3)c2ccccc21 (stereo not shown) [Example 162, N-(6-fluoro-6-(4-oxo-3,4-dihydrophthalazin-1-yl)spiro[3.3]heptan-2-yl)-1-(2-hydroxy-2-methylpropyl)-1H-indazole-3-carboxamide] | 15.1 to 100
[H][C@]1(c2n[nH]c(=O)c3ccccc32)C[C@]2(C[C@@H](NC(=O)c3cnn4cccc(N5CCOCC5)c34)C2)C1 (stereo partly drawn) [Example 438, 4-morpholino-N-((aR)-6-(4-oxo-3,4-dihydrophthalazin-1-yl)spiro[3.3]heptan-2-yl)pyrazolo[1,5-a]pyridine-3-carboxamide] | 100 to 2100
[H][C@]1(c2n[nH]c(=O)c3ccccc32)C[C@]2(C[C@@H](NC(=O)c3ccc4c(c3)COc3cncnc3-4)C2)C1 (stereo partly drawn) [Example 421, N-((aR)-6-(4-oxo-3,4-dihydrophthalazin-1-yl)spiro[3.3]heptan-2-yl)-6H-isochromeno[4,3-d]pyrimidine-8-carboxamide] | 15.1 to 100
[H][C@]1(c2n[nH]c(=O)c3ccccc32)C[C@@]2(C[C@H](N3C[C@@H](Cc4ccccc4)NC3=O)C2)C1 (stereo partly drawn) [Example 459, 4-((aR)-6-((R)-4-benzyl-2-oxoimidazolidin-1-yl)spiro[3.3]heptan-2-yl)phthalazin-1(2H)-one] | 100 to 2100
O=C(NC1CC2(C1)CC(c1n[nH]c(=O)c3ccccc13)C2)c1cnn2ccc(OCCO)cc12 [Example 77, 5-(2-hydroxyethoxy)-N-((aR)-6-(4-oxo-3,4-dihydrophthalazin-1-yl)spiro[3.3]heptan-2-yl)pyrazolo[1,5-a]pyridine-3-carboxamide] | 15.1 to 100
O=C(NC1CC2(C1)CC(c1n[nH]c(=O)c3ccccc13)C2)c1cnn2cc(CCCO)ccc12 [Example 195, 6-(3-hydroxypropyl)-N-((aR)-6-(4-oxo-3,4-dihydrophthalazin-1-yl)spiro[3.3]heptan-2-yl)pyrazolo[1,5-a]pyridine-3-carboxamide] | 5.1 to 15
Cn1nc(C(=O)NC2CC3(C2)CC(c2n[nH]c(=O)n4cccc24)C3)c2ccccc21 (stereo not shown) [Example 280, 1-methyl-N-(6-(4-oxo-3,4-dihydropyrrolo[1,2-d][1,2,4]triazin-1-yl)spiro[3.3]heptan-2-yl)-1H-indazole-3-carboxamide, TFA] | 5.1 to 15
O=C(NC1CC2(C1)CC(c1n[nH]c(=O)c3ccccc13)C2)c1ccnn1C(F)F [Example 286, 1-(difluoromethyl)-N-((aR)-6-(4-oxo-3,4-dihydrophthalazin-1-yl)spiro[3.3]heptan-2-yl)-1H-pyrazole-5-carboxamide] | 15.1 to 100

Further lines, results first:

IC50 [nM] | Compound
5.1 to 15 | [H][C@]1(c2n[nH]c(=O)c3ccccc32)C[C@]2(C[C@@H](NC(=O)c3ccc(-c4cnn(C(F)F)c4)c(F)c3)C2)C1 (stereo partly drawn) [Example 428, 4-(1-(difluoromethyl)-1H-pyrazol-4-yl)-3-fluoro-N-((aR)-6-(4-oxo-3,4-dihydrophthalazin-1-yl)spiro[3.3]heptan-2-yl)benzamide]
0.2 to 2 | O=C(NC1CC2(C1)CC(c1n[nH]c(=O)c3ccccc13)C2)c1cnn2cc(OCC(F)F)ccc12 [Example 80, 6-(2,2-difluoroethoxy)-N-((aR)-6-(4-oxo-3,4-dihydrophthalazin-1-yl)spiro[3.3]heptan-2-yl)pyrazolo[1,5-a]pyridine-3-carboxamide]
0.2 to 2 | O=C(NC1CC2(C1)CC(c1n[nH]c(=O)c3ccccc13)C2)c1cnn2cc(OCCN3CCCC3)ccc12 [Example 83, N-((aR)-6-(4-oxo-3,4-dihydrophthalazin-1-yl)spiro[3.3]heptan-2-yl)-6-(2-(pyrrolidin-1-yl)ethoxy)pyrazolo[1,5-a]pyridine-3-carboxamide]
5.1 to 15 | CC(C)(O)Cn1nc(C(=O)NC2CC3(C2)CC(c2n[nH]c(=O)c4ccccc24)C3)c2ccc(-c3cnoc3)cc21 (stereo not shown) [Example 161, 1-(2-hydroxy-2-methylpropyl)-6-(isoxazol-4-yl)-N-((αR)-6-(4-oxo-3,4-dihydrophthalazin-1-yl)psiro[3.3]heptan-2-yl)-1H-indazole-3-carboxamide]
5.1 to 15 | [H][C@]1(c2n[nH]c(=O)c3ccccc32)C[C@]2(C[C@@H](NC(=O)c3cccc(OC(F)F)c3)C2)C1 (stereo partly drawn) [Example 354, 3-(difluoromethoxy)-N-((aR)-6-(4-oxo-3,4-dihydrophthalazin-1-yl)spiro[3.3]heptan-2-yl)benzamide]
0.2 to 2 | Cn1cc(-c2ccc3c(C(=O)NC4CC5(C4)CC(c4n[nH]c(=O)c6ccccc46)C5)cnn3c2)c(C(F)(F)F)n1 [Example 223, 6-(1-methyl-3-(trifluoromethyl)-1H-pyrazol-4-yl)-N-((aR)-6-(4-oxo-3,4-dihydrophthalazin-1-yl)spiro[3.3]heptan-2-yl)pyrazolo[1,5-a]pyridine-3-carboxamide]
2.01 to 5 | O=C(NC1CC2(C1)CC(c1n[nH]c(=O)c3ccccc13)C2)N1Cc2ccc(-c3cnn(C4CC4)c3)cc2C1 [Example 247, 5-(1-cyclopropyl-1H-pyrazol-4-yl)-N-((aR)-6-(4-oxo-3,4-dihydrophthalazin-1-yl)spiro[3.3]heptan-2-yl)isoindoline-2-carboxamide]
5.1 to 15 | [H][C@]1(c2n[nH]c(=O)c3ccccc32)C[C@@]2(C[C@H](NC(=O)c3cc4ccccc4n3C)C2)C1 (stereo partly drawn) [Example 294, 1-methyl-N-((aR)-6-(4-oxo-3,4-dihydrophthalazin-1-yl)spiro[3.3]heptan-2-yl)-1H-indole-2-carboxamide]
5.1 to 15 | CC(C)(O)Cn1nc(C(=O)NC2CC3(C2)CC(c2n[nH]c(=O)n4cccc24)C3)c2ccccc21 (stereo not shown) [Example 278, 1-(2-hydroxy-2-methylpropyl)-N-(6-(4-oxo-3,4-dihydropyrrolo[1,2-d][1,2,4]triazin-1-yl)spiro[3.3]heptan-2-yl)-1H-indazole-3-carboxamide, TFA]
0.2 to 2 | [H][C@]1(c2n[nH]c(=O)c3ccccc32)C[C@]2(C[C@@H](NC(=O)c3cnc4cc(OC)ccn34)C2)C1 (stereo partly drawn) [Example 385, 7-methoxy-N-((aR)-6-(4-oxo-3,4-dihydrophthalazin-1-yl)spiro[3.3]heptan-2-yl)imidazo[1,2-a]pyridine-3-carboxamide]
0.2 to 2 | O=C(NC1CC2(C1)CC(c1n[nH]c(=O)c3ccccc13)C2)c1cnn2cc(OCCN3CCC(F)C3)ccc12 [Example 189, 6-(2-((R)-3-fluoropyrrolidin-1-yl)ethoxy)-N-((aR)-6-(4-oxo-3,4-dihydrophthalazin-1-yl)spiro[3.3]heptan-2-yl)pyrazolo[1,5-a]pyridine-3-carboxamide]
2.01 to 5 | COc1cccc(-c2ccc3c(C(=O)NC4CC5(C4)CC(c4n[nH]c(=O)c6ccccc46)C5)nn(CC(C)(C)O)c3c2)c1 (stereo not shown) [Example 158, 1-(2-hydroxy-2-methylpropyl)-6-(3-methoxyphenyl)-N-((αR)-6-(4-oxo-3,4-dihydrophthalazin-1-yl)spiro[3.3]heptan-2-yl)-1H-indazole-3-carobxamide]
